According to patent publication US7834023B2 (Portola Pharmaceuticals, Inc., priority 2006, dated 2010):

Experiments:
P2Y12 receptor = target: T1, P2Y12 receptor (Homo sapiens, UniProt Q9H244); assay: platelet ADP receptor binding assay (ARB): inhibition of [3H]2-MeS-ADP binding to platelets; conditions: [3H]2-MeS-ADP binding to apyrase-washed human platelets
T1 construct: endogenous in cells; host or cells: human platelets (outdated from blood banks or fresh), apyrase-washed, whole
How it was run: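 Apyrase-washed human platelets (1×10^8 per well) were preincubated 5 min with serial compound dilutions in Hepes-Tyrode's/0.1% BSA/0.6% DMSO, then incubated 15 min at room temperature with 1 nM [3H]2-MeS-ADP. Filter-bound radioactivity gave specific binding (nonspecific: 10 μM 2-MeS-ADP), and IC50s came from non-linear regression.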

[1] = system: human platelet-rich plasma (PRP); assay: PRP assay: inhibition of ADP-mediated platelet aggregation in vitro; type: cell-based; conditions: Homo sapiens, Platelet, ADP-induced aggregation
Procedure: The effect of testing the compound according to the invention on ADP-induced human platelet aggregation was assessed in a 96-well microtiter assay (see generally the procedures in Jantzen, H. M. et al. (1999) Thromb. Hemost. 81:111-117) or standard cuvette light transmittance aggregometry using either human platelet-rich plasma (PRP) or human washed platelets.
For preparation of human platelet-rich plasma for aggregation assays, human venous blood was collected from healthy, drug-free volunteers into 0.38% sodium citrate (0.013 M, pH 7.0 final). Platelet-rich plasma (PRP) is prepared by centrifugation of whole blood at 160×g for 20 minutes at room temperature. The PRP layer is removed, transferred to a new tube, and the platelet count is adjusted, if necessary, to achieve a platelet concentration of ˜3×10^8 platelets/ml using platelet-poor plasma (PPP). PPP is prepared by centrifugation of the remaining blood sample (after removal of PRP) for 20 minutes at 800×g. This preparation of PRP can subsequently be used for aggregation assays in either a 96-well plate or standard cuvette aggregometry.
For cuvette light transmittance aggregation assays, serial dilutions (1:3) of test compounds were prepared in 100% DMSO in a 96 well V-bottom plate (final DMSO concentration in the cuvette was 0.6%). The test compound (3 μl of serial dilutions in DMSO) was preincubated with PRP for 30-45 seconds prior to initiation of aggregation reactions, which were performed in a ChronoLog aggregometer by addition of agonist (5 or 10 μM ADP) to 490 μL of PRP at 37° C. In some cases, light transmittance aggregometry was performed using 490 μL of washed platelets (prepared as described above) at 37° C., and aggregation was initiated by addition of 5 μM ADP and 0.5 mg/ml human fibrinogen (American Diagnostics, Inc., Greenwich, Conn.). The aggregation reaction is recorded for ˜5 min, and maximum extent of aggregation is determined by the difference in extent of aggregation at baseline, compared to the maximum aggregation that occurs during the five minute period of the assay. Inhibition of aggregation was calculated as the maximum aggregation observed in the presence of inhibitor, compared to that in the absence of inhibitor. IC50s were derived by non-linear regression analysis using the Prism software (GraphPad, San Diego, Calif.).
Inhibition of ADP-dependent aggregation was also determined in 96-well flat-bottom microtiter plates using a microtiter plate shaker and plate reader similar to the procedure described by Frantantoni et al., Am. J. Clin. Pathol. 94, 613 (1990). All steps are performed at room temperature. For 96-well plate aggregation using platelet-rich plasma (PRP), the total reaction volume of 0.2 ml/well includes 180 μl of PRP (˜3×10^8 platelets/ml, see above), 6 μl of either serial dilution of test compounds in 20% DMSO or buffer (for control wells), and 10 μl of 20×ADP agonist solution (100 μM). The OD of the samples is then determined at 450 nm using a microtiter plate reader (Softmax, Molecular Devices, Menlo Park, Calif.) resulting in the 0 minute reading. The plates are then agitated for 5 min on a microtiter plate shaker and the 5 minute reading is obtained in the plate reader. Aggregation is calculated from the decrease of OD at 450 nm at t=5 minutes compared to t=0 minutes and is expressed as % of the decrease in the ADP control samples after correcting for changes in the unaggregated control samples. IC50s were derived by non-linear regression analysis.

T1 sequence (Q9H244 whole entry): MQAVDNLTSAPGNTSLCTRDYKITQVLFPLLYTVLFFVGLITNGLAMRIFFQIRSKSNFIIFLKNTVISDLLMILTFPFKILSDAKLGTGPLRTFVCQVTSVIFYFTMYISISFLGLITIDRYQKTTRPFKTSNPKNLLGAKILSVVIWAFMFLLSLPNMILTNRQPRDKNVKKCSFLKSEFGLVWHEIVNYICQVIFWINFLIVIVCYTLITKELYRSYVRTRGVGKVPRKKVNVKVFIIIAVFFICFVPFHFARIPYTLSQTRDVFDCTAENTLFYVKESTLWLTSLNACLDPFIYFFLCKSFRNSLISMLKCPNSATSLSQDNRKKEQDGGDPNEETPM

Row | IC50 (P2Y12 receptor) | SMILES | IC50 [1]
1 | > 500 nM | CNc1cc2c(cc1F)C(=O)N(c1ccc(CC(=O)NC(C(=O)N3CCCC3)c3ccc(Cl)s3)cc1)CO2 (centres unmarked) [Compound 121, N-(1-(5-chlorothiophen-2-yl)-2-oxo-2-(pyrrolidin-1-yl)ethyl)-2-(4-(6-fluoro-7-(methylamino)-4-oxo-2H-benzo[e][1,3]oxazin-3(4H)-yl)phenyl)acetamide] | 
2 | > 500 nM | N#Cc1ccc2c(=O)n(-c3ccc(C(=O)NC(C(=O)O)c4ccc(Cl)s4)cc3)ccc2c1 (centres unmarked) [Compound 98, 2-(5-chlorothiophen-2-yl)-2-(4-(6-cyano-1-oxoisoquinolin-2(1H)-yl)benzamido) acetic acid] | 
3 | 50 to 500 nM | CNc1cc2[nH]c(=O)n(-c3ccc(CNC(CC(=O)O)c4ccc(Cl)s4)cc3)c(=O)c2cc1F (centres unmarked) [Compound 104, 3-(5-chlorothiophen-2-yl)-3-(4-(6-fluoro-7-(methylamino)-2,4-dioxo-1,2-dihydroquinazolin-3(4H)-yl)benzylamino)propanoic acid] | 
4 | > 500 nM | CNc1cc2[nH]c(=O)n(-c3ccc(C(=O)NC(C(=O)OC)c4ccc(Cl)s4)cc3)c(=O)c2cc1F (centres unmarked) [Compound 18] | 
5 | 50 to 500 nM | CNc1cc2c(cc1F)C(=O)N(c1ccc(CC(=O)NC(C(N)=O)c3ccc(Cl)s3)cc1)CO2 (centres unmarked) [Compound 122, N-(2-amino-1-(5-chlorothiophen-2-yl)-2-oxoethyl)-2-(4-(6-fluoro-7-(methylamino)-4-oxo-2H-benzo[e][1,3]oxazin-3(4H)-yl)phenyl)acetamide] | 
6 | > 500 nM | N#Cc1ccc2c(=O)n(-c3ccc(C(=O)NC(C(=O)O)c4cccs4)cc3)ccc2c1 (centres unmarked) [Compound 95] | 
7 | > 500 nM | CNc1cc2[nH]c(=O)n(-c3ccc(CN(CC(=O)O)C(=O)c4ccc(Cl)s4)cc3)c(=O)c2cc1F [Compound 103, 2-(5-chloro-N-(4-(6-fluoro-7-(methylamino)-2,4-dioxo-1,2-dihydroquinazolin-3(4H)-yl)benzyl)thiophene-2-carboxamido)acetic acid] | 
8 | 50 to 500 nM | CNc1cc2cnn(-c3ccc(C(=O)NC(C(=O)O)c4ccc(Cl)s4)cc3)c(=O)c2cc1F (centres unmarked) [Compound 117, 2-(5-chlorothiophen-2-yl)-2-(4-(7-fluoro-6-(methylamino)-1-oxophthalazin-2(1H)-yl)benzamido)acetic acid] | 
9 | > 500 nM | CNc1cc2c(cc1F)C(=O)N(c1ccc(C(=O)NC(Cc3ccccc3)C(=O)O)cc1)CO2 (centres unmarked) [Compound 59, 2-(4-(6-fluoro-7-(methylamino)-4-oxo-2H-benzo[e][1,3]oxazin-3(4H)-yl)benzamido)-3-phenylpropanoic acid] | 
10 | > 500 nM | CNc1cc2[nH]c(=O)n(-c3ccc(C(=O)NC(c4ccc(Cl)c(Cl)c4)c4nnn[nH]4)cc3)c(=O)c2cc1F (centres unmarked) [Compound 29, N-((3,4-dichlorophenyl)(1H-tetrazol-5-yl)methyl)-4-(6-fluoro-7-(methylamino)-2,4-dioxo-1,2-dihydroquinazolin-3(4H)-yl)benzamide] | 
11 | 50 to 500 nM | CNc1cc2c(=O)n(-c3ccc(C(=O)NC(C(=O)O)c4ccc(Cl)s4)cc3)c(=O)[nH]c2cc1F (centres unmarked) [Compound 48, 2-(5-chlorothiophen-2-yl)-2-(4-(7-fluoro-6-(methylamino)-2,4-dioxo-1,2-dihydroquinazolin-3(4H)-yl)benzamido)acetic acid] | 
12 | > 500 nM | COc1ccc2c(=O)n(-c3ccc(C(=O)NC(C(=O)O)c4ccc(Cl)s4)cc3)ccc2c1 (centres unmarked) [Compound 101, 2-(5-chlorothiophen-2-yl)-2-(4-(6-methoxy-1-oxoisoquinolin-2(1H)-yl)benzamido)acetic acid] | 
13 | > 500 nM | O=C(NC(C(=O)O)c1ccc(Cl)s1)c1ccc(-n2cc(Br)c3ccccc3c2=O)cc1 (centres unmarked) [Compound 102, 2-(4-(4-bromo-1-oxoisoquinolin-2(1H)-yl)benzamido)-2-(5-chlorothiophen-2-yl)acetic acid] | 
14 | > 500 nM | CCc1ccc2c(=O)n(-c3ccc(C(=O)NC(C(=O)O)c4ccc(Cl)s4)cc3)ccc2c1 (centres unmarked) [Compound 93, 2-(5-chlorothiophen-2-yl)-2-(4-(6-ethyl-1-oxoisoquinolin-2(1H)-yl)benzamido)acetic acid] | 
15 | > 500 nM | CCc1ccc2c(c1)CCN(c1ccc(C(=O)NC(C(=O)O)c3ccc(Cl)s3)cc1)C2=O (centres unmarked) [Compound 119, 2-(5-chlorothiophen-2-yl)-2-(4-(6-ethyl-1-oxo-3,4-dihydroisoquinolin-2(1H)-yl)benzamido)acetic acid] | 
16 | > 500 nM | O=C(NC(C(=O)O)c1ccc(Cl)s1)c1ccc(-n2ccc3ccccc3c2=O)cc1 (centres unmarked) [Compound 96, 2-(5-chlorothiophen-2-yl)-2-(4-(1-oxoisoquinolin-2(1H)-yl)benzamido)acetic acid] | 
17 | > 500 nM | CNc1cc2[nH]c(=O)n(-c3ccc(C(=O)NC(c4cccc(C(F)(F)F)c4)c4nnn[nH]4)cc3)c(=O)c2cc1F (centres unmarked) [Compound 34] | 
18 | 50 to 500 nM | CNc1cc2c(cc1F)C(=O)N(c1ccc(C(=O)N[C@@H](Cc3ccccc3)C(=O)O)cc1)CO2 [Compound 60, (S)-2-(4-(6-fluoro-7-(methylamino)-4-oxo-2H-benzo[e][1,3]oxazin-3(4H)-yl)benzamido)-3-phenylpropanoic acid] | 
19 | > 500 nM | CC(C)Oc1ccc2[nH]c(=O)n(-c3ccc(C(=O)NC(C(=O)O)c4ccc(Cl)s4)cc3)c(=O)c2c1 (centres unmarked) [Compound 38, 2-(5-chlorothiophen-2-yl)-2-(4-(6-isopropoxy-2,4-dioxo-1,2-dihydroquinazolin-3(4H)-yl)benzamido)acetic acid] | 
20 | > 500 nM | O=C(NCc1nnn[nH]1)c1ccc(-n2c(=O)[nH]c3cc(NCc4ccc(F)cc4)ccc3c2=O)cc1 [Compound 10, N-((1H-tetrazol-5-yl)methyl)-4-(7-(4-fluorobenzylamino)-2,4-dioxo-1,2-dihydroquinazolin-3(4H)-yl)benzamide] | 
21 | > 500 nM | CNc1cc2[nH]c(=O)n(-c3ccc(C(=O)NC(c4cccc(C)c4)c4nnn[nH]4)cc3)c(=O)c2cc1F (centres unmarked) [Compound 22] | 
22 | > 500 nM | COc1cccc2c1OCN(c1ccc(C(=O)NC(C(=O)O)c3ccc(Cl)s3)cc1)C2=O (centres unmarked) [Compound 68, 2-(5-chlorothiophen-2-yl)-2-(4-(8-methoxy-4-oxo-2H-benzo[e][1,3]oxazin-3(4H)-yl)benzamido)acetic acid] | 
23 | 50 to 500 nM | CCOC(=O)C(NC(=O)c1ccc(N2COc3cc(NC)c(F)cc3C2=O)cc1)c1ccc(Cl)s1 (centres unmarked) [Compound 67, ethyl 2-(5-chlorothiophen-2-yl)-2-(4-(6-fluoro-7-(methylamino)-4-oxo-2H-benzo[e][1,3]oxazin-3(4H)-yl)benzamido)acetate] | 

Row | SMILES | IC50 (P2Y12 receptor) | IC50 [1]
24 | CNc1cc2ccn(-c3ccc(CNC(C(=O)O)c4ccc(Cl)s4)cc3)c(=O)c2cc1F (centres unmarked) [Compound 115, 2-(5-chlorothiophen-2-yl)-2-(4-(7-fluoro-6-(methylamino)-1-oxoisoquinolin-2(1H)-yl)benzylamino)acetic acid] | 50 to 500 nM | > 30000 nM
25 | CNc1cc2[nH]c(=O)n(-c3ccc(C(=O)NC(c4noc(=S)[nH]4)c4ccc(Cl)s4)cc3)c(=O)c2cc1F (centres unmarked) [Compound 32, N-((5-chlorothiophen-2-yl)(5-thioxo-4,5-dihydro-1,2,4-oxadiazol-3-yl)methyl)-4-(6-fluoro-7-(methylamino)-2,4-dioxo-1,2-dihydroquinazolin-3(4H)-yl)benzamide] | 50 to 500 nM | < 10000 nM
26 | CNc1cc2[nH]c(=O)n(-c3ccc(C(=O)NC(CC(=O)O)c4ccc(Cl)s4)cc3)c(=O)c2cc1F (centres unmarked) [Compound 27, 3-(5-chlorothiophen-2-yl)-3-(4-(6-fluoro-7-(methylamino)-2,4-dioxo-1,2-dihydroquinazolin-3(4H)-yl)benzamido)propanoic acid] | 50 to 500 nM | > 30000 nM
